The source of these data is patent US9453034B2, “C2-azaspiro iminothiazine dioxides as BACE inhibitors, compositions, and their use” (Merck Sharp & Dohme Corp., priority 2013, dated 2016).

What is called Ki is a dissociation constant, usually derived from enzyme kinetics or from competition with a known ligand.

Assay [1] concerns the target purified human autoBACE-2 (Homo sapiens (Human), UniProt Q9Y5Z0). Kind of assay: BACE-2 Assay (BACE-HTRF assay). It is filed as biochemical. Particulars: Ki calculated from IC50 using the Cheng-Prusoff equation; QSY7-EISEVNLDAEFC-Eu-amide substrate, pH 5.0; read-out: BACE2 Ki. The method, then: Inhibitor IC50s at purified human autoBACE-2 are determined in a time-resolved endpoint proteolysis assay that measures hydrolysis of the QSY7-EISEVNLDAEFC-Eu-amide FRET peptide substrate (BACE-HTRF assay). BACE-mediated hydrolysis of this peptide results in an increase in relative fluorescence (RFU) at 620 nm after excitation with 320 nm light. Inhibitor compounds, prepared at 3× the desired final concentration in 1×BACE assay buffer (20 mM sodium acetate pH 5.0, 10% glycerol, 0.1% Brij-35) supplemented with 7.5% DMSO are pre-incubated with an equal volume of autoBACE-2 enzyme diluted in 1×BACE assay buffer (final enzyme concentration 1 nM) in black 384-well NUNC plates for 30 minutes at 30° C. The assay is initiated by addition of an equal volume of the QSY7-EISEVNLDAEFC-Eu-amide substrate (200 nM final concentration, Km=8 μM […] for autoBACE-2) prepared in 1×BACE assay buffer supplemented with 7.5% DMSO and incubated for 90 minutes at 30° C. DMSO is present at 5% final concentration in the assay. Following laser excitation of sample wells at 320 nm, the fluorescence signal at 620 nm is collected for 400 ms following a 50 μs delay on a RUBYstar HTRF plate reader (BMG Labtechnologies). Raw RFU data is normalized to maximum (1.0 nM BACE/DMSO) and minimum (no enzyme/DMSO) RFU values. IC50s are determined by nonlinear regression analysis (sigmoidal dose response, variable slope) of percent inhibition data with minimum and maximum values set to 0 and 100 percent respectively. Similar IC50s are obtained when using raw RFU data. The Ki values are calculated from the IC50 using the Cheng-Prusoff equation.

The target of assay [2] is soluble human BACE1 catalytic domain (Homo sapiens (Human), UniProt P56817). The assay can be described thus: BACE1 HTRF FRET Assay. The conditions noted are these: Ki calculated from IC50 using the Cheng-Prusoff equation; QSY7-APPswe-Eu substrate, pH 5.0. It is filed as biochemical. The source says:
Reagents: Na^+-Acetate pH 5.0; 1% Brij-35; Glycerol; Dimethyl Sulfoxide (DMSO);
A homogeneous time-resolved FRET assay can be used to determine IC50 values for inhibitors of the soluble human BACE1 catalytic domain. This assay monitors the increase of 620 nm fluorescence that resulted from BACE1 cleavage of an APPswedish APP^swe mutant peptide FRET substrate (QSY7-[…]-Europium-amide). This substrate contains an N-terminal QSY7 moiety that serves as a quencher of the C-terminal Europium fluorophore (620 nm Em). […] Inhibition of BACE1 cleavage of the QSY7-APP^swe-Eu substrate by inhibitors is manifested as a suppression of 620 nm fluorescence.
Reactions are initiated by addition of 10 μl of 600 nM QSY7-APP^swe-Eu substrate (200 nM final) to give a final reaction volume of 30 μl in a 384 well Nunc HTRF plate. The reactions are incubated at 30° C. for 1.5 hours. The 620 nm fluorescence is then read on a Rubystar HTRF plate reader (BMG Labtechnologies) using a 50 millisecond delay followed by a 400 millisecond acquisition time window. Inhibitor IC50 values are derived from non-linear regression analysis of concentration response curves.

Sequence of soluble human BACE1 catalytic domain (P56817 75-416): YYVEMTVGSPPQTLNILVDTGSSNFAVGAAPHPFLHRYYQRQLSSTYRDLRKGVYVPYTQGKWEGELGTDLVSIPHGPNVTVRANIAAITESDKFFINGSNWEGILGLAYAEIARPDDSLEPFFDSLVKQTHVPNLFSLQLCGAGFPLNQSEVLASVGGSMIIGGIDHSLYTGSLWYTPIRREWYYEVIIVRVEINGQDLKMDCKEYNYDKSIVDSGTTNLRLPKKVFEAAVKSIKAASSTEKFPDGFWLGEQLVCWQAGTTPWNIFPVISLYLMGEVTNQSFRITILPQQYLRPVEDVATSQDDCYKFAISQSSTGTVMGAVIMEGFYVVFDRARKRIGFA
Sequence of purified human autoBACE-2 (Q9Y5Z0 63-473): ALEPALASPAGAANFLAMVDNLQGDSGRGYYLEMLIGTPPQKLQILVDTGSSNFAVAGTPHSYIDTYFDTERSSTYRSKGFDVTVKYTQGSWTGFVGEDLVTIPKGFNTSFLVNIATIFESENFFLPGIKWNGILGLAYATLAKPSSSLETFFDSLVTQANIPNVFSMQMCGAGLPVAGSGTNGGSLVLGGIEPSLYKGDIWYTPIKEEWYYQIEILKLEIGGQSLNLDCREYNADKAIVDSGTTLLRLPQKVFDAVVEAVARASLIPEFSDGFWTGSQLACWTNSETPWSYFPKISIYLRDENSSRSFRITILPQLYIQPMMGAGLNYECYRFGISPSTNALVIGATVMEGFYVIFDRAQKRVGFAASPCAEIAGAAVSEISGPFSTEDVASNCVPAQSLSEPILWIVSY

Take `CN1CC2(C1)C(=N)N[C@](C)(c1cc(NC(=O)c3ccc(C#N)cn3)ccc1F)CS2(=O)=O` [Example 1, (R)-5-cyano-N-(4-fluoro-3-(9-imino-2,7-dimethyl-5,5-dioxido-5-thia-2,8-diazaspiro[3.5]nonan-7-yl)phenyl)picolinamide]: the Ki in assay [1] is 1.4 nM; in assay [2], 1.7 nM.
For `CN1CC2(C1)C(=N)N[C@](C)(c1cc(NC(=O)c3ccc(F)cn3)ccc1F)CS2(=O)=O` [Example 2, 5-fluoro-N-{4-fluoro-3-[(7R)-9-imino-2,7-dimethyl-5,5-dioxido-5-thia-2,8-diazaspiro[3.5]non-7-yl]phenyl}pyridine-2-carboxamide], the inhibitory constant (Ki) in assay [1] is 1.2 nM; in assay [2], 6.1 nM.
Regarding `COc1ccc(C(=O)Nc2ccc(F)c([C@]3(C)CS(=O)(=O)C4(CN(C)C4)C(=N)N3)c2)nc1` [Example 3, N-{4-fluoro-3-[(7R)-9-imino-2,7-dimethyl-5,5-dioxido-5-thia-2,8-diazaspiro[3.5]non-7-yl]phenyl}-5-methoxypyridine-2-carboxamide], the inhibitory constant (Ki) in assay [1] is 1.6 nM; in assay [2], 6.3 nM.
`COc1cnc(C(=O)Nc2ccc(F)c([C@]3(C)CS(=O)(=O)C4(CN(C)C4)C(=N)N3)c2)cn1` [Example 4, N-{4-fluoro-3-[(7R)-9-imino-2,7-dimethyl-5,5-dioxido-5-thia-2,8-diazaspiro[3.5]non-7-yl]phenyl}-5-methoxypyrazine-2-carboxamide]: the values for the Ki in assay [1] and in assay [2] were 6.2 nM and 7.9 nM, respectively.
For `CN1CC2(C1)C(=N)N[C@](C)(c1cc(NC(=O)c3ccc(Cl)cn3)ccc1F)CS2(=O)=O` [Example 5, 5-chloro-N-{4-fluoro-3-[(7R)-9-imino-2,7-dimethyl-5,5-dioxido-5-thia-2,8-diazaspiro [3.5]non-7-yl]phenyl}pyridine-2-carboxamide], in that order: 0.4 nM and 2.2 nM.
The corresponding values for `CN1CC2(C1)C(=N)N[C@](C)(c1cc(NC(=O)c3ccc(OC(F)(F)F)cn3)ccc1F)CS2(=O)=O` [Example 6, N-{4-fluoro-3-[(7R)-9-imino-2,7-dimethyl-5,5-dioxido-5-thia-2,8-diazaspiro[3.5]non-7-yl]phenyl}-5-(trifluoromethoxy) pyridine-2-carboxamide] are 10.3 nM and 3.3 nM.
Take `CN1CC2(C1)C(=N)N[C@](C)(c1cc(NC(=O)c3ccc(OC(F)F)cn3)ccc1F)CS2(=O)=O` [Example 7, 5-(difluoromethoxy)-N-{4-fluoro-3-[(7R)-9-imino-2,7-dimethyl-5,5-dioxido-5-thia-2,8-diazaspiro[3.5]non-7-yl]phenyl}pyridine-2-carboxamide]: the values for the Ki in assay [1] and in assay [2] were 4.3 nM and 2.7 nM, respectively.
`CN1CC2(C1)C(=N)N[C@](C)(c1cc(NC(=O)c3ccc(OCF)cn3)ccc1F)CS2(=O)=O` [Example 8, N-{4-fluoro-3-[(7R)-9-imino-2,7-dimethyl-5,5-dioxido-5-thia-2,8-diazaspiro[3.5]non-7-yl]phenyl}-5-(fluoromethoxy) pyridine-2-carboxamide]: the figures for the Ki in assay [1] and in assay [2] were 1.5 nM and 4.9 nM, respectively.
For `COc1cnc(C(=O)Nc2ccc(F)c([C@]3(C)CS(=O)(=O)C4(CN(C)C4)C(=N)N3)c2)c(C)c1` [Example 9, N-{4-fluoro-3-[(7R)-9-imino-2,7-dimethyl-5,5-dioxido-5-thia-2,8-diazaspiro[3.5]non-7-yl]phenyl}-5-methoxy-3-methylpyridine-2-carboxamide], the inhibition constant Ki in assay [1] is 0.9 nM; in assay [2], 6.3 nM.
The corresponding values for `COc1cnc(C(=O)Nc2ccc(F)c([C@]3(C)CS(=O)(=O)C4(CN(C)C4)C(=N)N3)c2)c(C)n1` [Example 10, N-{4-fluoro-3-[(7R)-9-imino-2,7-dimethyl-5,5-dioxido-5-thia-2,8-diazaspiro[3.5]non-7-yl]phenyl}-5-methoxy-3-methylpyrazine-2-carboxamide] are 4.9 nM and 10.4 nM.
For `Cc1cc(C#N)cnc1C(=O)Nc1ccc(F)c([C@]2(C)CS(=O)(=O)C3(CN(C)C3)C(=N)N2)c1` [Example 11, 5-cyano-N-{4-fluoro-3-[(7R)-9-imino-2,7-dimethyl-5,5-dioxido-5-thia-2,8-diazaspiro[3.5]non-7-yl]phenyl}-3-methylpyridine-2-carboxamide], in that order: 1 nM and 1.3 nM.
Take `CC#CCOc1ccc(C(=O)Nc2ccc(F)c([C@]3(C)CS(=O)(=O)C4(CN(C)C4)C(=N)N3)c2)nc1` [Example 12, 5-(but-2-yn-1-yloxy)-N-{4-fluoro-3-[(7R)-9-imino-2,7-dimethyl-5,5-dioxido-5-thia-2,8-diazaspiro[3.5]non-7-yl]phenyl}pyridine-2-carboxamide]: the Ki in assay [1] was 30 nM; in assay [2], 2.3 nM.
As for `CN1CC2(C1)C(=N)N[C@](C)(c1cc(NC(=O)c3ncc(C#N)cc3C3CC3)ccc1F)CS2(=O)=O` [Example 12a, 5-cyano-3-cyclopropyl-N-{4-fluoro-3-[(7R)-9-imino-2,7-dimethyl-5,5-dioxido-5-thia-2,8-diazaspiro [3.5]non-7-yl]phenyl}pyridine-2-carboxamide], the Ki is 0.8 nM in assay [1] and 1.3 nM in assay [2].
For `CN1CC2(C1)C(=N)N[C@](C)(c1cc(NC(=O)c3ncc(C#N)cc3C(F)F)ccc1F)CS2(=O)=O` [Example 12b, 5-cyano-3-(difluoromethyl)-N-{4-fluoro-3-[(7R)-9-imino-2,7-dimethyl-5,5-dioxido-5-thia-2,8-diazaspiro [3.5]non-7-yl]phenyl}pyridine-2-carboxamide], the inhibition constant (Ki) in assay [1] was 0.5 nM; in assay [2], 1.4 nM.
In the case of `CN1CCC2(CC1)C(=N)N[C@](C)(c1cc(NC(=O)c3ccc(C#N)cn3)ccc1F)CS2(=O)=O` [Example 25, 5-cyano-N-{4-fluoro-3-[(3R)-5-imino-3,9-dimethyl-1,1-dioxido-1-thia-4,9-diazaspiro[5.5]undec-3-yl]phenyl}pyridine-2-carboxamide], the inhibitory constant (Ki) was 8.4 nM in assay [1] and 6.4 nM in assay [2].
For `CN1CCC2(CC1)C(=N)N[C@](C)(c1cc(NC(=O)c3ccc(F)cn3)ccc1F)CS2(=O)=O` [Example 26, 5-fluoro-N-{4-fluoro-3-[(3R)-5-imino-3,9-dimethyl-1,1-dioxido-1-thia-4,9-diazaspiro[5.5]undec-3-yl]phenyl}pyridine-2-carboxamide], in that order: 6.4 nM and 37 nM.
The corresponding values for `COc1ccc(C(=O)Nc2ccc(F)c([C@]3(C)CS(=O)(=O)C4(CCN(C)CC4)C(=N)N3)c2)nc1` [Example 27, N-{4-fluoro-3-[(3R)-5-imino-3,9-dimethyl-1,1-dioxido-1-thia-4,9-diazaspiro[5.5]undec-3-yl]phenyl}-5-methoxypyridine-2-carboxamide] are 24 nM and 35 nM.
Take `COc1cnc(C(=O)Nc2ccc(F)c([C@]3(C)CS(=O)(=O)C4(CCN(C)CC4)C(=N)N3)c2)cn1` [Example 28, N-{4-fluoro-3-[(3R)-5-imino-3,9-dimethyl-1,1-dioxido-1-thia-4,9-diazaspiro[5.5]undec-3-yl]phenyl}-5-methoxypyrazine-2-carboxamide]: the inhibition constant Ki is 29 nM in assay [1] and 19 nM in assay [2].
